Source: article PMC4579270, “Identification and Characterization of an Irreversible Inhibitor of CDK2” (Chemistry & Biology, 2015)

What was measured:
Experiment in all cases: Dundee protein kinase screen
Format in all cases: biochemical
FGF-R1 = FGF-R1 (Homo sapiens, UniProt P11362); settings: FGF-R1, 1µM; read-out: %Remaining activity at 1µM NU6300
Procedure, shortened: (§1)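 Selectivity panel of 131 protein kinases, inhibitor tested at a single concentration of 1 µM; values are % kinase activity remaining, mean of duplicates. Re-test of selected kinases used 0.5 µM in the standard format and again after a 4 hour pre-incubation with the inhibitor.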

TrkA = TrkA (Homo sapiens, UniProt P04629); settings: read-out: %Remaining activity at 1µM NU6300
Procedure, shortened: as §1

HIPK1 = HIPK1 (Homo sapiens, UniProt Q86Z02); settings: HIPK1, 1µM; read-out: %Remaining activity at 1µM NU6300
Procedure, shortened: as §1

ASK1 = target: T1, ASK1 (Homo sapiens, UniProt Q99683); settings: ASK1, 1µM; read-out: %Remaining activity at 1µM NU6300
T1 sequence (Q99683 1-1374): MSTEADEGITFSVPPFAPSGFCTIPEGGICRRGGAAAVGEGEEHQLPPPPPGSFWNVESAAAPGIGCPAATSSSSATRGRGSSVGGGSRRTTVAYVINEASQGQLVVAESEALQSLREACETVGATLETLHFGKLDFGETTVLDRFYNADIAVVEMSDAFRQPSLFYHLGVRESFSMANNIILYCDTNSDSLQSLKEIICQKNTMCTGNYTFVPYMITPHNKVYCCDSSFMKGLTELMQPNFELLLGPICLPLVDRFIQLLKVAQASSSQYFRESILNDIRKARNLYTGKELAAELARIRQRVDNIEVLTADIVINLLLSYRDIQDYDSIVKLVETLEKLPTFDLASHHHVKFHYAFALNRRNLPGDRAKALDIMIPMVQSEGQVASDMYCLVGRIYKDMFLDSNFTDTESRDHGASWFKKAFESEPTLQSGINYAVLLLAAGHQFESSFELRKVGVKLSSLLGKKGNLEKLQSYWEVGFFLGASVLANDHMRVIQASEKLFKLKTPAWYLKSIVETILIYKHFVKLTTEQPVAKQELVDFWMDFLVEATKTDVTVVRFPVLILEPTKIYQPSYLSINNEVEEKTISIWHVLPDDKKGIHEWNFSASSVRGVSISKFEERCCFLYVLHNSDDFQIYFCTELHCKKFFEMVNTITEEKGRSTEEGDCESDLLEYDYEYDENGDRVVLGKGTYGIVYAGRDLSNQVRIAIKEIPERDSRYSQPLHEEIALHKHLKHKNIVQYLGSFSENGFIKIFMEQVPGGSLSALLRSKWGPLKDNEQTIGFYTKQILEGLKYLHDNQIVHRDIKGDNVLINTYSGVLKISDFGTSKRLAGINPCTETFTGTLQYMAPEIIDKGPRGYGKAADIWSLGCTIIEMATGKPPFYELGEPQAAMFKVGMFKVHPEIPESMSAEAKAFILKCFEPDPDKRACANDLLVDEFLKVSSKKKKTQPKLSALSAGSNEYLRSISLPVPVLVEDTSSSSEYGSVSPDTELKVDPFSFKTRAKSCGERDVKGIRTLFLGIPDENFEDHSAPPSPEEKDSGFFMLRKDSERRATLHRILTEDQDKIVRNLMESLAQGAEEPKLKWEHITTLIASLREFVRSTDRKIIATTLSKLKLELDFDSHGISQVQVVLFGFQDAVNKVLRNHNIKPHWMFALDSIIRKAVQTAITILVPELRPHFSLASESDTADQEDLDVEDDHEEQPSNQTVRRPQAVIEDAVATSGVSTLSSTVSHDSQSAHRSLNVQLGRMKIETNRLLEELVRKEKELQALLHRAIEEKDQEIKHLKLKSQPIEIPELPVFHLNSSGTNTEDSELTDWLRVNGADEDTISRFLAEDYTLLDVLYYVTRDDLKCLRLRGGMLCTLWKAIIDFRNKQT
Procedure, shortened: as §1

TIE2 = TIE2 (Homo sapiens, UniProt Q02763); settings: TIE2, 1µM; read-out: %Remaining activity at 1µM NU6300
Procedure, shortened: as §1

PRAK = PRAK (Homo sapiens, UniProt Q8IW41); settings: read-out: %Remaining activity at 1µM NU6300
Procedure, shortened: as §1

MKK6 = MKK6 (Homo sapiens, UniProt P52564); settings: MKK6, 1µM; read-out: %Remaining activity at 1µM NU6300
Procedure, shortened: as §1

Chain of HIPK1 (Q86Z02 whole entry): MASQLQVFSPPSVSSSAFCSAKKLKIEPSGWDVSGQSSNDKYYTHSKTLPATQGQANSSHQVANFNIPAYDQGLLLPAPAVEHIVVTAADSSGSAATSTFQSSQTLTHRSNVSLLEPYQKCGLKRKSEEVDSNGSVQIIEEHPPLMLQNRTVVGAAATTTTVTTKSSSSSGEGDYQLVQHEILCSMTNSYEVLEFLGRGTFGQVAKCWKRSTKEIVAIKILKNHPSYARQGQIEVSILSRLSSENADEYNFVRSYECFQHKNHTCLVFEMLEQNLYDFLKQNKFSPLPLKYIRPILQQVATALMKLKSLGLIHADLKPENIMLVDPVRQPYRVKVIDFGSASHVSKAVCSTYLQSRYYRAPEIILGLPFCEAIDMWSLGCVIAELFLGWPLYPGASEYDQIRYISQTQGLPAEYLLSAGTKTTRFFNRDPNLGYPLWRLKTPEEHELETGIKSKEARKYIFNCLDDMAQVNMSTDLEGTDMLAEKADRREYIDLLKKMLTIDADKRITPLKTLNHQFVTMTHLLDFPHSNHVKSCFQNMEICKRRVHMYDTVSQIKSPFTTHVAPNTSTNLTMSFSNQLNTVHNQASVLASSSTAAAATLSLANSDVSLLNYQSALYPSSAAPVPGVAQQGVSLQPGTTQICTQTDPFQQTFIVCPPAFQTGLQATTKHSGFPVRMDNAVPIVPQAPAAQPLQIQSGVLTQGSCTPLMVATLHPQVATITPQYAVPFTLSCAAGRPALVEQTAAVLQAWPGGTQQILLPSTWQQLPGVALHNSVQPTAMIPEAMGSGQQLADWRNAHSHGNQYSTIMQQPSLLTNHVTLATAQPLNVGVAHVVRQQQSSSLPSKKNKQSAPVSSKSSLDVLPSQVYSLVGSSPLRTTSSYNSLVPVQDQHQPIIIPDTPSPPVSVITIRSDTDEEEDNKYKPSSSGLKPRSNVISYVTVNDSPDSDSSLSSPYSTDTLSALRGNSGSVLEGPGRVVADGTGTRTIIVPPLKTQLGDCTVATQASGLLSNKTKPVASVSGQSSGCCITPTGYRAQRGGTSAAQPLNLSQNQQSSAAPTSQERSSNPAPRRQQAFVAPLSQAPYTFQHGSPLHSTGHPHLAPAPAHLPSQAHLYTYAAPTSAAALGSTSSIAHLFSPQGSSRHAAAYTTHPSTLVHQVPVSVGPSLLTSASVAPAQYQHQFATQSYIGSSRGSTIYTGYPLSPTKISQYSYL
Chain of FGF-R1 (P11362 22-822): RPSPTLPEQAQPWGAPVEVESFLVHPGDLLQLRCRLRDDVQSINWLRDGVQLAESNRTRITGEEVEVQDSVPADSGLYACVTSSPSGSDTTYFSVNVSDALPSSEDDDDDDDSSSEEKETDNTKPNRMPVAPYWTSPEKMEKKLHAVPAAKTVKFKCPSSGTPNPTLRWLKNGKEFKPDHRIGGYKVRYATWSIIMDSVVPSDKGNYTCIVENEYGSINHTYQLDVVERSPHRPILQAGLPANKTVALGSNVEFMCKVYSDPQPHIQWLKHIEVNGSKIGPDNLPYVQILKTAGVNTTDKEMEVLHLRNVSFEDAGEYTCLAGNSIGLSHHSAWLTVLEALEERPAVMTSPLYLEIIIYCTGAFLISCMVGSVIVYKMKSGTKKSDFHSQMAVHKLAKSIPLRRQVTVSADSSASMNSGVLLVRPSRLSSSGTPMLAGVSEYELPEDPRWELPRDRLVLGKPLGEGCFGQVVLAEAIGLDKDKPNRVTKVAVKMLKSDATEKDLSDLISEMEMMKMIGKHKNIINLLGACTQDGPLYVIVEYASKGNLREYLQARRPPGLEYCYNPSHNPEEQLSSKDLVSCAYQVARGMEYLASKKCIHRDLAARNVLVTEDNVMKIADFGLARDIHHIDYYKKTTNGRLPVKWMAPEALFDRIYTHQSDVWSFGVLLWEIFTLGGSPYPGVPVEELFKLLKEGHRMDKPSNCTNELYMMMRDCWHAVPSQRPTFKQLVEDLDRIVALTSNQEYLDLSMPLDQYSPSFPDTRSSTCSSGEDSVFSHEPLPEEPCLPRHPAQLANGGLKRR
Chain of MKK6 (P52564 whole entry): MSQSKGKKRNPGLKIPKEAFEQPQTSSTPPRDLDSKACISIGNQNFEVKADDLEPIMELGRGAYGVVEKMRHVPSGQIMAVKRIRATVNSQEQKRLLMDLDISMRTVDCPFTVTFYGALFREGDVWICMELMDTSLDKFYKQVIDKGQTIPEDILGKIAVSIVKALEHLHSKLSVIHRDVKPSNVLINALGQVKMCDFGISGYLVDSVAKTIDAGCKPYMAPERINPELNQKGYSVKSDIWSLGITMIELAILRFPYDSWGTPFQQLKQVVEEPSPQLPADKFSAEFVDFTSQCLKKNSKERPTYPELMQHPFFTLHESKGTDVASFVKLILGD
Chain of TIE2 (Q02763 23-1124): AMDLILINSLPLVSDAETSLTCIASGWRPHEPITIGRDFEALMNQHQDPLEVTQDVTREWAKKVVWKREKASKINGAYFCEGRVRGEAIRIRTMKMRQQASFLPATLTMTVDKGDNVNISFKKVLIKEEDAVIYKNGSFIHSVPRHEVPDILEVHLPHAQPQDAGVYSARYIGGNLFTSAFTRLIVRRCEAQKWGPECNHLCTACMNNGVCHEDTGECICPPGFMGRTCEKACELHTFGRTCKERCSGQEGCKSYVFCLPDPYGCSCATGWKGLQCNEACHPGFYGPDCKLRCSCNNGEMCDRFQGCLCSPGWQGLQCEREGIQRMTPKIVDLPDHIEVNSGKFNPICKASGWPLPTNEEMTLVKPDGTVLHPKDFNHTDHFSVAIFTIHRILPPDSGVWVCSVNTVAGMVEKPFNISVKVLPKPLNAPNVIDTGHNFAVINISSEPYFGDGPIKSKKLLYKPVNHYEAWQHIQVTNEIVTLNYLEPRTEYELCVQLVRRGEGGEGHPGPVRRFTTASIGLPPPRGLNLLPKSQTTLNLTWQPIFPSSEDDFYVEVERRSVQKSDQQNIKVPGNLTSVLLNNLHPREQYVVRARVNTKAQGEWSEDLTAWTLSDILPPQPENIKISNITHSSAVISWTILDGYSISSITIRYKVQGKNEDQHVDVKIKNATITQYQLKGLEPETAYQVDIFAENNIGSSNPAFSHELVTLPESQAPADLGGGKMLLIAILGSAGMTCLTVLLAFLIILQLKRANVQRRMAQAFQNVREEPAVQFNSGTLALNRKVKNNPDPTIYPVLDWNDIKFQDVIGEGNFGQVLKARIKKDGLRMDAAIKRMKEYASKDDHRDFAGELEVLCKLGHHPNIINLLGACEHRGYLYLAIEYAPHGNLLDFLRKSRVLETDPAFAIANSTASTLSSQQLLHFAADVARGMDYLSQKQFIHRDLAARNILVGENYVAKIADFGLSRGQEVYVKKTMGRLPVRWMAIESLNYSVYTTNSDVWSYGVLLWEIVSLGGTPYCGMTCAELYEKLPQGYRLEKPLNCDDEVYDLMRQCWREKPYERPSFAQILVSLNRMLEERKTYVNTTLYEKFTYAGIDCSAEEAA
Chain of PRAK (Q8IW41 whole entry): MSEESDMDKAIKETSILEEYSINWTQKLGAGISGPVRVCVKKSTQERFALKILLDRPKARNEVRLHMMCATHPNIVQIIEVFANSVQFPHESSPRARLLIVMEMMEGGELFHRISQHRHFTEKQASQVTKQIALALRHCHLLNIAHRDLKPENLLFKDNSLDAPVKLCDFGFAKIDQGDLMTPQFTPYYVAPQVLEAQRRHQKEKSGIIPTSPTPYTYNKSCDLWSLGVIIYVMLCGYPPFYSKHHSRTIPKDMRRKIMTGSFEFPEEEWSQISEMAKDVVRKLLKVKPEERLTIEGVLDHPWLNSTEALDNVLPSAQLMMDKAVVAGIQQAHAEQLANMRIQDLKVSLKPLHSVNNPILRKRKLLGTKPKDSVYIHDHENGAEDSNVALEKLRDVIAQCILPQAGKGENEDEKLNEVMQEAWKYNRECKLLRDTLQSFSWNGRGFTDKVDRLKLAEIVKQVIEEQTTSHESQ
Chain of TrkA (P04629 33-796): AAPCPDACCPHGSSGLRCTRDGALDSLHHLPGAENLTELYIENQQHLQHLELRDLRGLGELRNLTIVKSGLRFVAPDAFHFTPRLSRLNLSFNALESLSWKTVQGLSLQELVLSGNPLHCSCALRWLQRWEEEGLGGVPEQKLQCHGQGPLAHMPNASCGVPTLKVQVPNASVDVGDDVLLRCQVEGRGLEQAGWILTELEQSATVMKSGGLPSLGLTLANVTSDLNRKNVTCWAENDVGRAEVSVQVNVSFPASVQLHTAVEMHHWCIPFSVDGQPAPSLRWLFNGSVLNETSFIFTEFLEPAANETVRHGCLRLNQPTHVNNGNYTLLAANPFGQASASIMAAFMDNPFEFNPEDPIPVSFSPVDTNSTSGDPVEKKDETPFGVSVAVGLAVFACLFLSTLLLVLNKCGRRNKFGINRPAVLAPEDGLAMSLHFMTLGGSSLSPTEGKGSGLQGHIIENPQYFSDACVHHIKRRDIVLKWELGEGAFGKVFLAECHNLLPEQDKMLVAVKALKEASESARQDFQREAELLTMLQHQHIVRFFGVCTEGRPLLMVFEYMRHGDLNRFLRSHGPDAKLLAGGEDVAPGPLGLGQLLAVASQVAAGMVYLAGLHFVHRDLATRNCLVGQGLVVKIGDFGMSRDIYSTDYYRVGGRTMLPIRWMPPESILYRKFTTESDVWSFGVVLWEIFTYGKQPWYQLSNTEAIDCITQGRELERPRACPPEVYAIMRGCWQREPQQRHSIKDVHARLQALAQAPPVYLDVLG

## C=CS(=O)(=O)c1ccc(Nc2nc(OCC3CCCCC3)c3nc[nH]c3n2)cc1 [NU6300, 6-(cyclohexylmethoxy)-N-(4-(vinylsulfonyl)phenyl)-9H-purin-2-amine]
FGF-R1
  remaining activity at 1 µM: 62%
TrkA
  remaining activity at 1 µM: 59%
HIPK1
  remaining activity at 1 µM: 93%
ASK1
  remaining activity at 1 µM: 49%
TIE2
  remaining activity at 1 µM: 122%
PRAK
  remaining activity at 1 µM: 77%
MKK6
  remaining activity at 1 µM: 85%
